Laboratory results taken from article PMC6154586 (Molecules : A Journal of Synthetic Chemistry and Natural …, 2017).

How the values were obtained:
Format in all cases: cell-based
Settings in all cases: human
[1] = in vitro cytotoxicity bioassay, MCF-7
Description: (§1) These two experiments were conducted according to reference procedures.

[2] = in vitro cytotoxicity bioassay, MDA-MB-435
Description: as §1

[3] = in vitro cytotoxicity bioassay, HepG2
Description: as §1

[4] = in vitro cytotoxicity bioassay, PC-3
Description: as §1

[5] = MCF-7 cells (breast cancer cell line)
[6] = MDA-MB-435 cells (breast cancer cell line)
[7] = HepG2 cells (hepatoma cell line)
[8] = PC-3 cells (prostatic cancer cell line)

Measured: IC50

C=C1C2(CC(O)C(=O)OC2(C)C)CC(OC(C)=O)C2(C)C13OC14C(=O)OC(C)(C(=C)C12C(=O)OC4C)C3OC(C)=O (stereo not shown) [Compound 1, 2-hydroacetoxydehydroaustin]
> 50 µM: [1]; [5] | [2]; [6] | [3]; [7] | [4]; [8]

C=C1[C@]2(C)C(=O)[C@]3(O)[C@@H](C)OC(=O)[C@]13[C@@]1(C)CC[C@@]3(C=CC(=O)OC3(C)C)C(C)=C1[C@@H]2OC(C)=O [Compound 2, 11-acetoxyisoaustinone]
> 50 µM: [1]; [5] | [2]; [6] | [3]; [7] | [4]; [8]

C=C1[C@@]2(C)CC3=C(C)[C@]4(C=CC(=O)OC4(C)C)CC[C@]3(C)[C@@]13C(=O)O[C@H](C)[C@@]3(O)C2=O [Compound 3, isoaustinol]
> 50 µM: [1]; MCF-7 | [2]; MDA-MB-435 | [3]; HepG2 | [4]; PC-3

C=C1[C@@]23C(=O)O[C@H](C)[C@@]2(O)C(=O)O[C@]1(C)[C@@H](OC(C)=O)C1=C(C)[C@]2(C=CC(=O)OC2(C)C)CC[C@@]13C [Compound 4, austin]
> 50 µM: [1]; MCF-7 | [2]; MDA-MB-435 | [3]; HepG2 | [4]; PC-3

C=C1[C@@]23C(=O)O[C@H](C)[C@@]2(O)C(=O)O[C@]1(C)[C@@H](O)C1=C(C)[C@]2(C=CC(=O)OC2(C)C)CC[C@@]13C [Compound 5, austinol]
> 50 µM: [1]; [5] | [2]; [6] | [3]; [7] | [4]; [8]

C=C1[C@@]23C(=O)O[C@H](C)[C@]24O[C@@]2(C(=C)[C@]5(C=CC(=O)OC5(C)C)C[C@@H](OC(C)=O)[C@]32C)[C@H](OC(C)=O)[C@@]1(C)OC4=O [Compound 6, acetoxydehydroaustin]
> 50 µM: [1]; MCF-7 | [2]; MDA-MB-435 | [3]; HepG2 | [4]; PC-3

C=C1[C@@]23C(=O)O[C@H](C)[C@]24O[C@@]2(C(=C)[C@]5(C=CC(=O)OC5(C)C)CC[C@]32C)[C@H](OC(C)=O)[C@@]1(C)OC4=O [Compound 7, dehydroaustin]
> 50 µM: [1]; MCF-7 | [2]; MDA-MB-435 | [3]; HepG2 | [4]; PC-3

C=C1[C@@]23C(=O)O[C@H](C)[C@]24O[C@@]2(C(=C)[C@]5(C=CC(=O)OC5(C)C)CC[C@]32C)[C@H](O)[C@@]1(C)OC4=O [Compound 8, dehydroaustinol]
> 50 µM: [1]; MCF-7 | [2]; MDA-MB-435 | [3]; HepG2 | [4]; PC-3

C=C1[C@@]2(C)C[C@H]3[C@]4(C)C=CC(=O)OC(C)(C)[C@H]4CC[C@]3(C)[C@]1(C(=O)OC)C(=O)[C@@](C)(O)C2=O [Compound 9, preaustinoid A2]
> 50 µM: [1]; [5] | [2]; [6] | [3]; [7] | [4]; [8]

C=C1[C@@]23C(=O)O[C@H](C)[C@]24O[C@@]2(C(=C)[C@]5(CCC(=O)OC5(C)C)C[C@@H](OC(C)=O)[C@]32C)[C@H](OC(C)=O)[C@@]1(C)OC4=O [Compound 10, 1,2-dihydro-acetoxydehydroaustin B]
> 50 µM: [1]; [5] | [2]; [6] | [3]; [7] | [4]; [8]
